Measured values published in US5679640A, “Immunosuppressant peptides” (priority 1995, dated 1997).
Non-standard residues stand in square brackets, D forms with d. Residues, ends and D or L forms follow the SMILES beside them. *: point of attachment. Acetyl(1-adamantyl) = O=C(CC12CC3CC(CC(C3)C1)C2)*

Tests used:
[1] = target: T1, DR4w4 (Homo sapiens, UniProt P01903+P01911, A100K/A169T/F76Y/I96L/K127E/L162R/M171V/N62H/P40V/Q125Y/R42H/S133A/S149N/S66Y/V115G/V209L/W38E); experiment: DR-peptide binding assay, DR4w4; conditions: for MHC Binding Assay DR4w4: Table 3, binding affinity relative to HA 307-319 = 1
T1 construct: EBV-transformed homozygous cell lines were used as a source of DR molecules; endogenous in cells; host or cells: Preiss or Beh (EBV-transformed human B cell lines, DR4 Dw4 homozygous); lysate purified on a monoclonal antibody LB3.1 column

[2] = target: T2, HLA-DR1 (Homo sapiens, UniProt P01903+P01911, A100R/D57E/F55L/F60I/F76Y/I96L/L162R/M171V/P40L/Q125E/R42F/V115G/Y59C); experiment: DR-peptide binding assay, DR1; conditions: for MHC Binding Assay DR1: Table 3, binding affinity relative to HA 307-319 = 1
T2 construct: EBV-transformed homozygous cell lines were used as a source of DR molecules; endogenous in cells; host or cells: LG-2 (EBV-transformed human B cell line, DR1 homozygous); lysate purified on a monoclonal antibody LB3.1 column

[3] = tested on: DR4w14; experiment: DR-peptide binding assay, DR4w14; parameters: species or system human; conditions: for MHC Binding Assay DR4w14: Table 3, […]
[4] = in vitro; conditions: human, serum
[5] = Table 6, binding affinity relative to HA 307-319 = 1

| DR4w4 [1, 5] | DR1 [2, 5] | DR4w14 ([3]; Table 6, […]) | half-life at 50 µg/mL [4] [h] | SMILES | MHC Binding Assay DR4w4 [1] | MHC Binding Assay DR1 [2] | MHC Binding Assay DR4w14 [3] | half-life [4] [h] |
| --- | --- | --- | --- | --- | --- | --- | --- | --- |
|  |  |  |  | C[C@H](NC(=O)[C@H](N)Cc1ccc(O)cc1)C(=O)N[C@@H](C)C(=O)N[C@@H](Cc1ccccc1)C(=O)N[C@@H](C)C(=O)N[C@@H](C)C(=O)N[C@@H](C)C(=O)N[C@@H](CCCCN)C(=O)N[C@H](C(=O)N[C@@H](C)C(=O)N[C@@H](C)C(=O)N[C@@H](C)C(=O)N[C@@H](C)C(=O)N[C@H](C)C(=O)O)[C@@H](C)O (H-[dY]AAFAAAKTAAAA[dA]-OH) | ++ (affinity greater than 1.0) | ++ (affinity greater than 1.0) | ++ (affinity greater than 1.0) | 8.85 |
|  |  |  |  | C[C@H](NC(=O)[C@H](N)Cc1ccc(O)cc1)C(=O)N[C@@H](C)C(=O)N[C@@H](Cc1ccccc1)C(=O)N[C@@H](C)C(=O)N[C@@H](C)C(=O)N[C@@H](C)C(=O)N[C@@H](CCCCN)C(=O)N[C@H](C(=O)N[C@@H](C)C(=O)N[C@@H](C)C(=O)N[C@@H](C)C(=O)N[C@@H](Cc1ccccc1)C(=O)N[C@H](C)C(N)=O)[C@@H](C)O (H-[dY]AAFAAAKTAAAF[dA]-NH2) | ++ (affinity greater than 1.0) | ++ (affinity greater than 1.0) | ++ (affinity greater than 1.0) | 5 |
| ++ (affinity greater than 1.0) | + (0.51 to 1.0) | ++ (affinity greater than 1.0) | 7.2 | C[C@H](NC(=O)CC12CC3CC(CC(C3)C1)C2)C(=O)N[C@@H](C)C(=O)N[C@@H](C)C(=O)N[C@@H](CCCCN)C(=O)N[C@H](C(=O)N[C@@H](C)C(=O)N[C@@H](C)C(=O)N[C@@H](C)C(=O)N[C@@H](Cc1ccccc1)C(=O)N[C@H](C)C(=O)O)[C@@H](C)O ({Acetyl(1-adamantyl)}-AAAKTAAAF[dA]-OH; C-terminus assumed) |  |  |  |  |
|  |  |  |  | CC(=O)N[C@H](Cc1ccc(O)cc1)C(=O)N[C@@H](C)C(=O)N[C@@H](C)C(=O)N[C@@H](Cc1ccccc1)C(=O)N[C@@H](C)C(=O)N[C@@H](C)C(=O)N[C@@H](C)C(=O)N[C@@H](CCCCN)C(=O)N[C@H](C(=O)N[C@@H](C)C(=O)N[C@@H](C)C(=O)N[C@@H](C)C(=O)N[C@@H](C)C(=O)N[C@H](C)C(=O)O)[C@@H](C)O (Ac-[dY]AAFAAAKTAAAA[dA]-OH) | ++ (affinity greater than 1.0) | ± (0.1 to 0.50) | ++ (affinity greater than 1.0) | 6.77 |
